Assay results taken from EP4810483A1, “6- AND 5-HETEROARYL DERIVATIVES AND USE THEREOF” (CMS Research & Development Pte. Ltd., priority 2023, dated 2025).
pEC50, pIC50: −log10 of the molar value. Where two headings read alike, the source gives them in different places. Values belong to the compound of their own block, whether it stands above or below them.

Experiments:
[1] = Pharmacokinetic evaluation in mice (IV and PO); assay type: in vivo; settings: mouse, plasma, CD-1 mice; for half-life: IV, read-out: Half-life T1/2 (IV) (converted); for AUC(0-t): PO, read-out: Area under the concentration-time curve AUC0-last PO; for bioavailability: read-out: Bioavailability F; for clearance: read-out: Clearance CL; for Cmax: read-out: Peak plasma concentration Cmax; for Vd: read-out: Volume of distribution Vdss
Description: Test Method 2: Pharmacokinetic Evaluation in Mice
Assay method: Test compounds were mixed with 5% DMSO / 60% polyethylene glycol (PEG400) / 35% water, vortexed and sonicated to obtain a clear 0.2 mg/mL solution, which was then filtered through a microporous membrane before use. Male CD-1 mice weighing 25-35 g were selected. The candidate compound solution was administered intravenously at a dose of 1 mg/kg. The candidate compound solution was orally administered at a dose of 5 mg/kg after fasting. Blood samples (25 µL each) were collected at 0.083, 0.25, 0.5, 1, 2, 4, 8, 12 and 24 hours after administration, and placed into commercial anticoagulant tubes pre-containing EDTA-K2. The tubes were centrifuged for 10 minutes to separate plasma, which was then stored at -60°C. The content of the target compound in plasma samples was determined by LC/MS/MS method, and pharmacokinetic parameters were calculated using Phoenix WinNonlin software (Pharsight, USA).
Tlast: time of the last detection point. AUC0-last: (Area Under the Concentration-Time Curve) refers to the area enclosed by the plasma drug concentration curve and the time axis. F (Bioavailability) is a measure of the rate and extent to which a drug is absorbed into the systemic circulation, serving as a critical indicator for evaluating the degree of drug absorption. […]

[2] = molecular target: T1, hKCNQ2/3 (Homo sapiens, UniProt O43525+O43526); experiment: cell-based
T1 construct: expressed in transfected cells; host or cells: CHO
T1 sequence (O43526 whole entry): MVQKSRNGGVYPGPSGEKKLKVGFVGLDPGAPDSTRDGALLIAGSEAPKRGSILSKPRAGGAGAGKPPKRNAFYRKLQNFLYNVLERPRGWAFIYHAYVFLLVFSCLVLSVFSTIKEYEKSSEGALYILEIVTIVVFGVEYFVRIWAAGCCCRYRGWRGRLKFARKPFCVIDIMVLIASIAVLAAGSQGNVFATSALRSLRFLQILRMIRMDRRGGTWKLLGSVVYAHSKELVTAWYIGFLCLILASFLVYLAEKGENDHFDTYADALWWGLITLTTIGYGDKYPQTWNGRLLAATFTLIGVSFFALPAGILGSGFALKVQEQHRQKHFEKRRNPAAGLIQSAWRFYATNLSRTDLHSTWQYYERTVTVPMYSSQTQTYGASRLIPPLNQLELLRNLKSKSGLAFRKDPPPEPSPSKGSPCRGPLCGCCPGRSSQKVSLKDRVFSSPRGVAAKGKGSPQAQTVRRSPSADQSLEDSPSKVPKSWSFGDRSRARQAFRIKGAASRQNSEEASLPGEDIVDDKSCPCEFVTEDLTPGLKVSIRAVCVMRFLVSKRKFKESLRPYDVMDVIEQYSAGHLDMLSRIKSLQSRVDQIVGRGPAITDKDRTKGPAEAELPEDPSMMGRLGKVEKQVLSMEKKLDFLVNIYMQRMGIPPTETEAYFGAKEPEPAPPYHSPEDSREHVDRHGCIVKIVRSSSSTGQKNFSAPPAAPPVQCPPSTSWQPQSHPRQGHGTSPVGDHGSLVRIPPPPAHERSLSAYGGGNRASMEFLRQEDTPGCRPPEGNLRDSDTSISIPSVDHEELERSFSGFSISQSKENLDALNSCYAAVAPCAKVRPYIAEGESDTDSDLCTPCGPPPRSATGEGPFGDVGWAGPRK
T1 sequence (O43525 whole entry): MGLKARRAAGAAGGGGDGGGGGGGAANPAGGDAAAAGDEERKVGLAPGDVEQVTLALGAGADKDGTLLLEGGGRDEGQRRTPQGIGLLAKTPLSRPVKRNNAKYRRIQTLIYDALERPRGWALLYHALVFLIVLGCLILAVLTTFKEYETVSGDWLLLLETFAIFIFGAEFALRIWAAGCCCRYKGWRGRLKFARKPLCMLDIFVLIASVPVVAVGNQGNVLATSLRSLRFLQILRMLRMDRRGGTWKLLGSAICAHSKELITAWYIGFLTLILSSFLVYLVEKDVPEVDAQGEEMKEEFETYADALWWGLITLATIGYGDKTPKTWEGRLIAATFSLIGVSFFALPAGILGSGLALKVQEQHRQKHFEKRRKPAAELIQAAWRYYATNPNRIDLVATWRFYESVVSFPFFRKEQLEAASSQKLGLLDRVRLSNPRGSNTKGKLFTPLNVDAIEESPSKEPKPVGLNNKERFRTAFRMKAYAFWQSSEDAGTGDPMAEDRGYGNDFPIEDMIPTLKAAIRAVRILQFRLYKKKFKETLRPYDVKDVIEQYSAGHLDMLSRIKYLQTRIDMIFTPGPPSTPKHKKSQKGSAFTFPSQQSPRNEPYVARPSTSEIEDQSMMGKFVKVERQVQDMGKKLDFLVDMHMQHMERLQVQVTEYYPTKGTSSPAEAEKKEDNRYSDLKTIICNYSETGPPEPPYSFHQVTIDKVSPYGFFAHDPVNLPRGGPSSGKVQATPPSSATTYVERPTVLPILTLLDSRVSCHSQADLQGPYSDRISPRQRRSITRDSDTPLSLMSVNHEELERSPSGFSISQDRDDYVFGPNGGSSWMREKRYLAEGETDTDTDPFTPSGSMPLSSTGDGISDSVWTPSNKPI
Text: Test Method 1: hKCNQ2/3 Thallium Flux Assay
Test Objective: To test the in vitro concentration-response relationship of compounds using FLIPR thallium flux assay in CHO cell lines stably expressing hKCNQ2/3.
According to the split ratio, the cells were transferred to another T-75 flask containing complete cell growth medium. Note: To maintain logarithmic growth, the cells should be kept in a subconfluent monolayer state. Based on the cell doubling time, the cells were passaged every 2-3 days.
• (1) Day 1 - Cell preparation: Cells were digested as described above, and cell density and viability were determined using a Cell Countess. The volume of the single-cell suspension was adjusted with complete cell growth medium. Then, hKCNQ2/3_CHO cells were seeded onto PDL-precoated 384-well plates at a density of approximately 20,000 cells/well (30 µL/well). The plates were then incubated overnight in a 37°C, 5% CO2 humidified air incubator. • (2) Day 2 - Compound preparation: Test compounds were diluted with dimethyl sulfoxide (DMSO) to stock concentrations and stored in a -20°C freezer. A compound addition program was set up on the ECHO liquid handler, and compounds were added to the plates using the ECHO liquid handler. Retigabine (RTG) was used as a positive control at a highest concentration of 100 µM with 3-fold serial dilutions for a total of 9 doses. Buffer containing 5 mM K^+ and 1 mM Tl^+ was added to the plates. Notes: 1) K2SO4 and Tl2SO4 were prepared in 1× chloride-free buffer. Depending on the voltage-gated potassium channel involved, the concentrations of Tl^+ and K^+ should be adjusted. Tl^+ concentration is approximately 0.5-5 mM, and K^+ concentration is approximately 5-30 mM. 2) Each 1 mM solution of K2SO4 and Tl2SO4 contains 2 mM K^+ and Tl^+; the final concentration should be calculated based on the ion concentration. 3) TlCl readily precipitates and a chloride-free buffer is required. • (3) Day 2 -Assay testing: Once the cells reached the desired confluence, the cell assay plates were removed from the incubator. Assay buffer and diluted Tl^+ dye (Molecular Devices # R8222) were prepared. The medium was discarded using a Bravo liquid handler, and 25 µL of Tl^+ dye was added to each well. After 1 hour of incubation, the cell assay plates, composite plates and FLIPR tips were placed in the FLIPR^TETRA (Molecular Devices, USA) for FLIPR detection. After setting up the tips, baseline readings were taken for 60 seconds, then 12.5 µL was added from the composite plate (3×) to the cell assay plate, and data were recorded for at least 5 minutes. • (4) Data processing: Maximum signals were generated by the FLIPR software. […] Data quality control: S/B > 2.00, Z factor > 0.50.
• (1) Day 1 - Cell preparation: Cells were digested as described above, and cell density and viability were determined using a Cell Countess. The volume of the single-cell suspension was adjusted with complete cell growth medium. Then, hKCNQ2/3_CHO cells were seeded onto PDL-precoated 384-well plates at a density of approximately 20,000 cells/well (30 µL/well). The plates were then incubated overnight in a 37°C, 5% CO2 humidified air incubator. • (2) Day 2 - Compound preparation: Test compounds were diluted with dimethyl sulfoxide (DMSO) to stock concentrations and stored in a -20°C freezer. A compound addition program was set up on the ECHO liquid handler, and compounds were added to the plates using the ECHO liquid handler. Retigabine (RTG) was used as a positive control at a highest concentration of 100 µM with 3-fold serial dilutions for a total of 9 doses. Buffer containing 5 mM K^+ and 1 mM Tl^+ was added to the plates. Notes: 1) K2SO4 and Tl2SO4 were prepared in 1× chloride-free buffer. Depending on the voltage-gated potassium channel involved, the concentrations of Tl^+ and K^+ should be adjusted. Tl^+ concentration is approximately 0.5 mM -5 mM, and K^+ concentration is approximately 5 mM -30 mM.

[3] = molecular target: CYP2D6 (Homo sapiens, UniProt P10635); experiment: Drug-drug interaction evaluation: CYP inhibition in human liver microsomes (cocktail method)
CYP2D6, sequence (P10635 whole entry): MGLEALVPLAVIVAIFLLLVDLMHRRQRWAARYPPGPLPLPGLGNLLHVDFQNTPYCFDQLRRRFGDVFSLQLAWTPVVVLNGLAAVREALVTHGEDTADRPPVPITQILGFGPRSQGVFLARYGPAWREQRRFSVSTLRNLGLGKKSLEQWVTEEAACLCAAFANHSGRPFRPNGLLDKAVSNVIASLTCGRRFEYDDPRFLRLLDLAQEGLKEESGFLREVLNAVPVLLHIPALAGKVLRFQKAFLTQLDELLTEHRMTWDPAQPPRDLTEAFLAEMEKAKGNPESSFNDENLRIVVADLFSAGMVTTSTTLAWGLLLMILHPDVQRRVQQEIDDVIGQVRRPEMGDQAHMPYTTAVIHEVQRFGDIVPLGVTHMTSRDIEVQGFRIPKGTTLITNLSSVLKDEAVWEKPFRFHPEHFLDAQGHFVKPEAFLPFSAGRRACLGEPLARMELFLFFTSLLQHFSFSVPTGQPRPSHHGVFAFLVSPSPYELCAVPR
Description: (§1) The cocktail method using specific probe substrates for CYP1A2, CYP2C9, CYP2C19, CYP2D6 and CYP3A was used to evaluate the inhibitory effect of the compounds on the activity of human liver microsomal cytochrome P450 isoenzymes (CYP1A2, CYP2C9, CYP2C19, CYP2D6 and CYP3A).
(§2) Human liver microsomes, probe substrates, positive control inhibitors, and reduced nicotinamide adenine dinucleotide phosphate (NADPH).
(§3) To the corresponding wells of a reaction plate, 20 µL of substrate solution was added; to blank wells, 20 µL of potassium phosphate buffer was added.
(§4) To the corresponding wells, 2 µL of test compound and positive control working solution were added; to inhibitor-free and blank wells, 2 µL of solvent was added.
(§5) Human liver microsome working solution was prepared, and 158 µL of human liver microsome working solution was added to each well of the reaction plate.
(§6) The plate was pre-incubated at 37.0°C for 10 minutes.
(§7) To start the reaction, 20 µL of NADPH cofactor working solution was added to the reaction plate.
(§8) After incubation in a 37.0°C water bath with mixing for 10 minutes, 400 µL of stop solution was added to terminate the reaction.
(§9) The sample plate was centrifuged at 4000 rpm for 20 minutes.
(§10) 200 µL of supernatant was taken and mixed with 100 µL of pure water as diluent, and the plate was shaken to mix well.
(§11) Analysis was performed by liquid chromatography-tandem mass spectrometry (LC-MS/MS).
(§12) Using the percentage of remaining activity as the ordinate and the test compound concentration as the abscissa, a non-linear regression analysis was performed with a three-parameter or four-parameter model using XL fit software to calculate the IC50 value.
(§13) y = (max)/(1 + (((x)/(IC50)))^−hillslope) [formula]
(§14) y = min + (max−min)/(1 + (((x)/(IC50)))^−hillslope) [formula]
(§15) max = maximum enzyme activity; min = minimum enzyme activity; x = concentration of test compound or positive control inhibitor; y = enzyme activity at the corresponding concentration; hillslope = slope; IC50 = half-maximal inhibitory concentration. The four-parameter equation was used when the minimum enzyme activity was within ±10%; otherwise the three-parameter equation was used.

[4] = molecular target: CYP2C19 (Homo sapiens, UniProt P33261); experiment: as above
CYP2C19, sequence (P33261 whole entry): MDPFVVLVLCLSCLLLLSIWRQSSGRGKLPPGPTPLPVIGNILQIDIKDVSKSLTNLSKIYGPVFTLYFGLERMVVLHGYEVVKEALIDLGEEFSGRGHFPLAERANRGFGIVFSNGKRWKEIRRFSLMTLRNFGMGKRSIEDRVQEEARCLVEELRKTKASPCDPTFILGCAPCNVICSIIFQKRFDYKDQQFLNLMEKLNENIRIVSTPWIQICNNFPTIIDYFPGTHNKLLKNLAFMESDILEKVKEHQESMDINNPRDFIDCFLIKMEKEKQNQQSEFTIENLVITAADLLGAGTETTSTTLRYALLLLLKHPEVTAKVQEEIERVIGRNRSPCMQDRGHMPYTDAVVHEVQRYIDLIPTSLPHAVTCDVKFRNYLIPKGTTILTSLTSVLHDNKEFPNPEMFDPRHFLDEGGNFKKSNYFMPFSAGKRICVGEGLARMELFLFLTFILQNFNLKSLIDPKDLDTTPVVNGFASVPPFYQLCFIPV
Description: as §1, §2, §3, §4, §5, §6, §7, §8, §9, §10, §11, §12, §13, §14, §15

[5] = molecular target: CYP3A4 (Homo sapiens, UniProt P08684); experiment: as above
CYP3A4, sequence (P08684 2-503): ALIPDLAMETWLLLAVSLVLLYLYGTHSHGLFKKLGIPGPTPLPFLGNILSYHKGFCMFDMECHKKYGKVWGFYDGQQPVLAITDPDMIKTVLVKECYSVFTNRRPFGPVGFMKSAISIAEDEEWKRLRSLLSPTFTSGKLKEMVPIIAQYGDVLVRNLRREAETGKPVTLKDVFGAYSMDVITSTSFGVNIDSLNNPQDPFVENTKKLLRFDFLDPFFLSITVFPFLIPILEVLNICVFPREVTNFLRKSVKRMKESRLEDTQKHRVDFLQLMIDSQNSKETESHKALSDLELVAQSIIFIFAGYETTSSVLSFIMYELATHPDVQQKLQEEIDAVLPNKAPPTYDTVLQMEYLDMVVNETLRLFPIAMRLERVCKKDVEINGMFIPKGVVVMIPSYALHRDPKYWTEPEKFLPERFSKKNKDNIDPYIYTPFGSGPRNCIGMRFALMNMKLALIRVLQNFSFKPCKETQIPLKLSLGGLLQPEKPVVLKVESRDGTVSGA
Description: as §1, §2, §3, §4, §5, §6, §7, §8, §9, §10, §11, §12, §13, §14, §15

[6] = molecular target: T2, CYP1A2 (Homo sapiens, UniProt P05177); experiment: as above
T2 sequence (P05177 1-516): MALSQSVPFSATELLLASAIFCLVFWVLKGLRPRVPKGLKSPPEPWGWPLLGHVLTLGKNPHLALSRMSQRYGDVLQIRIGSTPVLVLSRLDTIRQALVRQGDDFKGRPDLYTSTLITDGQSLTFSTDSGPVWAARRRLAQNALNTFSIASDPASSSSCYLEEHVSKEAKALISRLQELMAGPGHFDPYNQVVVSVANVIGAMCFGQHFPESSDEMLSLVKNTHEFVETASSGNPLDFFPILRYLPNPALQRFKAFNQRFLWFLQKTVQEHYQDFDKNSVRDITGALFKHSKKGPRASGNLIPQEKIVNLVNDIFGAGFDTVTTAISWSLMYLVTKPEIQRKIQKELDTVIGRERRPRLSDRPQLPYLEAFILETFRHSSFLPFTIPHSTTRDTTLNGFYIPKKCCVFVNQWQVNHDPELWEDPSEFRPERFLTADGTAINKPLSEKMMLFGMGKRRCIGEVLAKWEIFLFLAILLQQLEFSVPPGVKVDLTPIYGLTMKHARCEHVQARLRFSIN
Description: as §1, §2, §3, §4, §5, §6, §7, §8, §9, §10, §11, §12, §13, §14, §15

[7] = molecular target: CYP2C9 (Homo sapiens, UniProt P11712); experiment: as above
CYP2C9, sequence (P11712 whole entry): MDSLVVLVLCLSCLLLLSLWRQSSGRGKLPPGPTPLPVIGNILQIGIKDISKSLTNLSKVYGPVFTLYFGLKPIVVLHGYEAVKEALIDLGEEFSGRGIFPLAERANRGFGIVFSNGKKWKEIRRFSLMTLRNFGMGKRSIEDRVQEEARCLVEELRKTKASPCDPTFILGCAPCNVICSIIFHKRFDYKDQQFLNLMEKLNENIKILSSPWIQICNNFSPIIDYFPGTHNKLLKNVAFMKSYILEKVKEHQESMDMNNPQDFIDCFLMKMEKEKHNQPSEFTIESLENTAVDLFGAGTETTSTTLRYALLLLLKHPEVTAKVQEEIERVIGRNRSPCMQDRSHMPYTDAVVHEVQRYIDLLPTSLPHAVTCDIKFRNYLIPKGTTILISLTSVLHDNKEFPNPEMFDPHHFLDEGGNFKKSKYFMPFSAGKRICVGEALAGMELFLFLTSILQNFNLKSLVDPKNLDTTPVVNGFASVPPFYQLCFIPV
Description: as §1, §2, §3, §4, §5, §6, §7, §8, §9, §10, §11, §12, §13, §14, §15

[8] = system: maximal electroshock-induced epilepsy model; experiment: Maximal electroshock-induced epilepsy model, behavioral pharmacodynamics; assay type: in vivo; settings: dose 5 mg/kg, oral, one hour before electrical stimulation; male CD-1 mice
Text: Assay Example 2: Evaluation of the behavioral pharmacodynamics of the test compounds in a maximal electroshock-induced epilepsy model
This study used behavioral tests in male CD-1 mice to investigate the effects of test compounds on acute epileptic seizures behavior induced by maximal electroshock.
Male CD-1 mice (25 to 35g) were used as the experimental animals and fed with standard feed (Beijing Vital River Laboratory Animal Technology Co., Ltd.).
After arriving at the animal facility, the experimental animals needed to acclimatize for at least one week. The mice were observed daily for vital signs, and randomly divided into groups according to their body weights one day before the drug administration. One hour before the electrical stimulation, different dosages of the test compound were orally administered to each group. On the day of the assay, the male CD-1 mice in each group were anesthetized locally at the cornea with 2% lidocaine. Then, silver bipolar electrodes were used to electrically stimulate the cornea of the mice with 18 mA, 60 Hz, a pulse width of 0.6 ms, and a stimulation time of 1 s to induce seizures. Subsequently, the latency of seizures and the duration of limb rigidity in mice after the electrical stimulation were observed, and the protection rate from seizures for each group was statistically analyzed.

[9] = agonistic effect, CHO cells stably expressing hKCNQ2/3, FLIPR thallium flux, read-out: EC50

SMILES: CC(C)(C)CC(=O)Nc1nc2c(F)cc(Nc3ccc(F)cc3)cc2n1C1CCC1 [Compound 4]
half-life ([1]; dose IV:0.5, PO:2 mg/kg): 1.2 h
AUC(0-t) ([1]; dose IV:0.5, PO:2 mg/kg): 2.98 µM·h
bioavailability ([1]; dose IV:0.5, PO:2 mg/kg): 64.2%
clearance ([1]; dose IV:0.5, PO:2 mg/kg): 17.9 mL/min/kg
Cmax ([1]; dose IV:0.5, PO:2 mg/kg): 548 nM
Vd ([1]; dose IV:0.5, PO:2 mg/kg): 2.14 L/kg

SMILES: Cc1c(NC(=O)CC(C)(C)C)n(C)c2cc(Nc3ccc(F)cn3)ccc12 [Compound 11]
pEC50 [2]: 6.70
half-life ([1]; dose IV:0.5, PO:2 mg/kg): 0.7 h
AUC(0-t) ([1]; dose IV:0.5, PO:2 mg/kg): 1.11 µM·h
bioavailability ([1]; dose IV:0.5, PO:2 mg/kg): 62.2%
clearance ([1]; dose IV:0.5, PO:2 mg/kg): 50.3 mL/min/kg
Cmax ([1]; dose IV:0.5, PO:2 mg/kg): 524 nM
Vd ([1]; dose IV:0.5, PO:2 mg/kg): 2 L/kg

SMILES: Cc1c(NC(=O)CC2(C)CC2)n(C)c2cc(Nc3ccc(F)cc3)ccc12 [Compound 12]
pEC50 [2]: 6.10
pIC50 [3]: 4.82
pIC50 [4]: 4.89
pIC50 [5]: 4.43
pIC50 [6]: 4.70
pIC50 [7]: 4.96

pEC50 [2, 9]: 6.30
SMILES: Cc1c(NC(=O)C2CC2)n(C)c2cc(Nc3ccc(F)cc3)ccc12 [Compound 13]

pEC50 [2, 9]: 6.15
SMILES: CCC(=O)Nc1c(C)c2ccc(Nc3ccc(F)cc3)cc2n1C [Compound 16]

pEC50 [2, 9]: 6.66
SMILES: Cc1c(NC(=O)C2CCCC2)n(C)c2cc(Nc3ccc(F)cn3)ccc12 [Compound 21]

pEC50 [2, 9]: 6.37
SMILES: Cc1c(NC(=O)C2CCC2)n(C)c2cc(Nc3ccc(F)cn3)ccc12 [Compound 22]

SMILES: Cc1c(NC(=O)CC(C)(C)C)n(C)c2cc(Nc3ncc(F)cc3F)ccc12 [Compound 26]
pEC50 [2]: 6.40
pIC50 [3]: < 4.30
pIC50 [4]: 4.36
pIC50 [5]: < 4.30
pIC50 [6]: 4.72
pIC50 [7]: < 4.30

pEC50 [2, 9]: 6.25
SMILES: Cc1c(NC(=O)CC2(C)CC2)n(C)c2cc(Nc3ccc(F)cn3)ccc12 [Compound 28]

pEC50 [2, 9]: 6.39
SMILES: Cc1ccc(Nc2ccc3c(C)c(NC(=O)CC(C)(C)C)n(C)c3c2)nc1 [Compound 29]

pEC50 [2, 9]: 6.68
SMILES: Cc1c(NC(=O)CC(C)(C)C)n(C)c2cc(Nc3ccc(Cl)cn3)ccc12 [Compound 30]

SMILES: Cc1nc(Nc2ccc3c(C)c(NC(=O)CC4(C)CC4)n(C)c3c2)ccc1F [Compound 36]
Seizure incidence (%) [8]: 0%
pEC50 [2]: 6.66
half-life ([1]; dose IV:1, PO:5 mg/kg): 1.7 h
AUC(0-t) ([1]; dose IV:1, PO:5 mg/kg): 29.5 µM·h
bioavailability ([1]; dose IV:1, PO:5 mg/kg): 92.7%
clearance ([1]; dose IV:1, PO:5 mg/kg): 6.9 mL/min/kg
Cmax ([1]; dose IV:1, PO:5 mg/kg): 4750 nM
Vd ([1]; dose IV:1, PO:5 mg/kg): 0.8 L/kg

pEC50 [2, 9]: 6.09
SMILES: Cc1c(NC(=O)CC(C)(C)C)n(C)c2cc(Nc3ncc(F)cn3)ccc12 [Compound 38]
